Measured values as given in paper PMC13185819, “De Novo Multi‐Mechanism Antimicrobial Peptide Design via Multimodal Deep Learning” (Advanced Science, 2026).
Converted amounts (≈) assume the structure as drawn. Residues, ends and D or L forms follow the SMILES beside them.

Tests used:
Type in all cases: cell-based
E. faecium 21 = tested on: E. faecium 21
Protocol: (§1) Standard strains included S. aureus ATCC33592, S. aureus CICC25138, and Salmonella enterica ATCC14028, which were purchased from the China Center of Industrial Culture Collection (CICC). Standard strains including E.coli CMCC44102, Salmonella enterica CMCC50071, and S. aureus CMCC26003 were purchased from the National Center for Medical Culture Collections (CMCC). […] All experiments using the above strains were carried out in a BSL‐2 laboratory. The clinical laboratory of Qilu Hospital detected bacterial resistance to various antibiotics. All strains were streaked on Nutrient Broth (NB) agar medium and incubated overnight at 37°C.
(§2) The antimicrobial activity of the peptides was examined in sterile 96‐well plates using the broth microdilution according to the CLSI standard. The colonies were suspended in saline solution, the turbidity was adjusted to McFarland 0.5 to reach a bacterial concentration of 10^8 CFU/mL, and again diluted 100 times for the inhibition test. Then, 50 µL of bacterial suspension at 1 × 10^6 CFU/mL was incubated with the same volume of different concentrations of peptide solution [serial twofold dilutions in Mueller–Hinton Broth (Hopebio)]. […] All experiments were performed with three independent replicates.

P. aeruginosa 116 = tested on: P. aeruginosa 116
Protocol: as §1, §2

E.coli 208 = tested on: E.coli 208
Protocol: as §1, §2

E.coli 110 = tested on: E.coli 110
Protocol: as §1, §2

S. aureus 103 = tested on: S. aureus 103
Protocol: as §1, §2

S. aureus 129 = tested on: S. aureus 129
Protocol: as §1, §2

S. aureus CICC25138 = tested on: S. aureus CICC25138
Protocol: as §1, §2

K. pneumoniae 7713 = tested on: K. pneumoniae 7713
Protocol: as §1, §2

S. aureus ATCC33592 = tested on: S. aureus ATCC33592
Protocol: as §1, §2

E. faecium 1042 = tested on: E. faecium 1042
Protocol: as §1, §2

P. aeruginosa 119 = tested on: P. aeruginosa 119
Protocol: as §1, §2

P. aeruginosa 112 = tested on: P. aeruginosa 112
Protocol: as §1, §2

Row | Compound | MIC (μg/mL) E. faecium 21 (E. faecium 21) [µg/mL] | MIC (μg/mL) P. aeruginosa 116 (P. aeruginosa 116) [µg/mL] | MIC (μg/mL) E.coli 208 (E.coli 208) [µg/mL] | MIC (μg/mL) E.coli 110 (E.coli 110) [µg/mL] | MIC (μg/mL) S. aureus 103 (S. aureus 103) [µg/mL] | MIC (μg/mL) S. aureus 129 (S. aureus 129) [µg/mL] | MIC (μg/mL) S. aureus CICC25138 (S. aureus CICC25138) [µg/mL] | MIC (μg/mL) K. pneumoniae 7713 (K. pneumoniae 7713) [µg/mL] | MIC (μg/mL) S. aureus ATCC33592 (S. aureus ATCC33592) [µg/mL] | MIC (μg/mL) E. faecium 1042 (E. faecium 1042) [µg/mL] | MIC (μg/mL) P. aeruginosa 119 (P. aeruginosa 119) [µg/mL] | MIC (μg/mL) P. aeruginosa 112 (P. aeruginosa 112) [µg/mL]
1 | CC[C@H](C)[C@H](NC(=O)[C@H](CCCCN)NC(=O)[C@H](Cc1c[nH]c2ccccc12)NC(=O)[C@@H](N)CCCCN)C(=O)N[C@@H](CCCCN)C(=O)N[C@@H](Cc1c[nH]c2ccccc12)C(=O)N1CCC[C@H]1C(=O)N[C@@H](CO)C(=O)N[C@@H](CC(N)=O)C(=O)N[C@@H](Cc1c[nH]c2ccccc12)C(=O)N[C@@H](Cc1ccccc1)C(=O)N[C@H](C(=O)N[C@@H](CCCCN)C(=O)N[C@@H](CC(C)C)C(N)=O)[C@@H](C)O [QLX-3DV-3] (H-KWKIKWPSNWFTKL-NH2) | 8 (≈ 4.3 µM) | 16 (≈ 8.6 µM) | 8 (≈ 4.3 µM) | 16 (≈ 8.6 µM) | 32 (≈ 17.2 µM) | 64 (≈ 34.4 µM) | 32 (≈ 17.2 µM) | 16 (≈ 8.6 µM) | 32 (≈ 17.2 µM) | 8 (≈ 4.3 µM) | 32 (≈ 17.2 µM) | 32 (≈ 17.2 µM)
2 | CC[C@H](C)[C@H](NC(=O)[C@H](CCCCN)NC(=O)[C@H](Cc1c[nH]c2ccccc12)NC(=O)[C@@H](N)CCCCN)C(=O)N[C@@H](CCCCN)C(=O)N[C@@H](Cc1c[nH]c2ccccc12)C(=O)N1CCC[C@H]1C(=O)N[C@@H](CO)C(=O)N[C@@H](CCCNC(=N)N)C(=O)N[C@@H](Cc1c[nH]c2ccccc12)C(=O)N[C@@H](Cc1ccccc1)C(=O)N[C@H](C(=O)N[C@@H](CCCCN)C(=O)N[C@@H](CC(C)C)C(N)=O)[C@@H](C)O [QLX-3DV-4] (H-KWKIKWPSRWFTKL-NH2) | 8 (≈ 4.2 µM) | 32 (≈ 16.8 µM) | 16 (≈ 8.41 µM) | 32 (≈ 16.8 µM) | 16 (≈ 8.41 µM) | 32 (≈ 16.8 µM) | 16 (≈ 8.41 µM) | 16 (≈ 8.41 µM) | 32 (≈ 16.8 µM) | 16 (≈ 8.41 µM) | 32 (≈ 16.8 µM) | 32 (≈ 16.8 µM)
3 | CC[C@H](C)[C@H](NC(=O)[C@H](CCCCN)NC(=O)[C@H](Cc1c[nH]c2ccccc12)NC(=O)[C@@H](N)CCCCN)C(=O)N[C@@H](CCCCN)C(=O)N[C@@H](CCCNC(=N)N)C(=O)N1CCC[C@H]1C(=O)N[C@H](C(=O)N[C@@H](CCCCN)C(=O)N[C@@H](Cc1c[nH]c2ccccc12)C(=O)N[C@@H](Cc1ccccc1)C(=O)N[C@H](C(=O)N[C@@H](CCSC)C(=O)N[C@@H](CC(C)C)C(N)=O)[C@@H](C)O)C(C)C [QLX-3DV-5] (H-KWKIKRPVKWFTML-NH2) | 8 (≈ 4.3 µM) | 128 (≈ 68.8 µM) | 8 (≈ 4.3 µM) | 8 (≈ 4.3 µM) | 32 (≈ 17.2 µM) | 128 (≈ 68.8 µM) | 64 (≈ 34.4 µM) | 8 (≈ 4.3 µM) | 64 (≈ 34.4 µM) | 32 (≈ 17.2 µM) | 64 (≈ 34.4 µM) | 16 (≈ 8.6 µM)
4 | CC[C@H](C)[C@H](NC(=O)[C@H](CCCCN)NC(=O)[C@H](CCCNC(=N)N)NC(=O)[C@@H](N)CCCCN)C(=O)N[C@@H](CCCCN)C(=O)N[C@@H](Cc1c[nH]c2ccccc12)C(=O)N[C@@H](Cc1c[nH]c2ccccc12)C(=O)N[C@H](C(=O)N[C@@H](CCCNC(=N)N)C(=O)N[C@@H](Cc1c[nH]c2ccccc12)C(=O)N[C@H](C(=O)N[C@H](C(=O)N[C@@H](CCCCN)C(=O)N[C@@H](CC(C)C)C(N)=O)[C@@H](C)O)[C@@H](C)CC)C(C)C [QLX-3DV-8] (H-KRKIKWWVRWITKL-NH2) | 4 (≈ 2.06 µM) | 8 (≈ 4.12 µM) | – | – | 8 (≈ 4.12 µM) | 8 (≈ 4.12 µM) | 16 (≈ 8.25 µM) | 8 (≈ 4.12 µM) | – | 8 (≈ 4.12 µM) | 32 (≈ 16.5 µM) | 16 (≈ 8.25 µM)
